From patent US20140303246A1, “USE OF ADAMANTANE DERIVATIVES FOR THE TREATMENT OF ACTINIC KERATOSIS” (MERZ Pharma GmbH & Co. KGaA, priority 2011, published 2014)

Experiments:
[1] = Resazurin assay, viability of cells by metabolic activity; assay type: cell-based; conditions: human, primary human epidermal keratinocytes (NHEK), metabolic activity (Resazurin) as read-out, read-out: IC50 for the cytolytic/cytotoxic effect based on metabolic activity
Protocol: (§1) By using primary human epidermal keratinocytes (NHEK, FIG. 1) the cytolytic potential of several drug compound was investigated.
(§2) The viability of the cells was monitored by their metabolic activity using the Resazurin—assay. Eight different concentrations (up to 1 mM) of amantadine were investigated. Viability of the cells was plotted against the different concentration of test compound.
(§3) From the resulting sigmoid-curve the IC50 value for the cytolytic effect was determined and given in the respective figure. FIG. 1 depicts the relative viability vs. the concentration on NHEK cells using metabolic activity as read-out.
(§4) For each of these compounds, the same experiments were performed in an analogous fashion to the compound of Example 1 except that the test items were prepared in separate plates starting with the double concentrated maximal test concentration followed by a 1:3 serial dilution and then added to the cells. The test items were tested at 6 replicates/concentration. In addition to metabolic activity also the release of cytoplasmatic-lactate dehydrogenase (LDH) was used to monitor cell death. Early release (after 6 hrs) indicate membrane damage a primary mode of action

[2] = test system: primary human epidermal keratinocytes (NHEK); assay: as above; assay type: cell-based
Protocol: as §1, §2, §3, §4

[3] = test system: NHEK cells; assay: Release of cytoplasmatic lactate dehydrogenase (LDH) to monitor cell death / membrane damage; assay type: cell-based, human
Protocol: as §4

SMILES | IC50 [1] [µM] | cytotoxic effect (in words) [2] | LDH-release at 6 hrs (early membrane damage) [3]
CC(N)C12CC3CC(CC(C3)C1)C2 (stereo not shown) [Rimantadine, 1-(1-adamantyl)ethanamine] | 660 | – | –
CC12CC3CC(C)(C1)CC(N)(C3)C2 [Memantine, 3,5-dimethyladamantan-1-amine] | 330 | clear cytotoxic activity | early membrane damage
